Where a name gives a salt, the structure may show the parent alone.
Experiment: in vitro
Settings: human, hek293t cells

Row | SMILES | viability at 48 h, 25 µM [%]
1 | CC(Cl)C(=O)N(C)c1ccccc1 (centres unmarked) [5-D06, 2-chloro-N-methyl-N-phenylpropanamide] | 102
2 | Cc1cccc(N(Cc2c(C3CC3)cnn2C)C(=O)CCl)c1 [5-D07, 2-chloro-N-[(4-cyclopropyl-1-methyl-1H-pyrazol-5-yl)methyl]-N-(3-methylphenyl)acetamide] | 0.857
3 | CC(Cl)C(=O)NC(=O)Nc1ccc2c(c1)OCCO2 (centres unmarked) [5-D08, 3-(2-chloropropanoyl)-1-(2,3-dihydro-1,4-benzodioxin-6-yl)urea] | 84.1
4 | CCN(Cc1ccc(OC)c(F)c1)C(=O)CCl [5-D09, 2-chloro-N-ethyl-N-[(3-fluoro-4-methoxyphenyl)methyl]acetamide] | 1.38
5 | N#Cc1c(NC(=O)CCl)oc(-c2ccco2)c1-c1ccco1 [5-D10, 2-chloro-N-[4'-cyano-2'-(furan-2-yl)-[2,3'-bifuran]-5'-yl]acetamide] | 45.5
6 | CCN(C(=O)CCl)C1CCCCC1 [5-D11, 2-chloro-N-cyclohexyl-N-ethylacetamide] | 0.918
7 | COc1ccc(CCNC(=O)C(C)Cl)cc1 (centres unmarked) [5-D12, 2-chloro-N-[2-(4-methoxyphenyl)ethyl]propanamide] | 104
8 | CC(Cl)C(=O)NCCN1CCn2nccc2C1 (centres unmarked) [5-D13, 2-chloro-N-(2-{4H,5H,6H,7H-pyrazolo[1,5-a]pyrazin-5-yl}ethyl)propanamide] | 98.4
9 | CC(C)CN(C(=O)CCl)C1CC1 [5-D14, 2-chloro-N-cyclopropyl-N-(2-methylpropyl)acetamide] | 1.19
10 | CN(Cc1cc(-c2ccccc2)[nH]n1)C(=O)CCl [5-D15, 2-chloro-N-methyl-N-[(5-phenyl-1H-pyrazol-3-yl)methyl]acetamide] | 0.109
11 | CN(CCOc1ccc(Cl)cc1)C(=O)CCl [5-D16, 2-chloro-N-[2-(4-chlorophenoxy)ethyl]-N-methylacetamide] | 0.377
12 | COc1ccc2c(c1)CCCN(C(=O)C(C)Cl)C2 (centres unmarked) [5-D17, 2-chloro-1-(7-methoxy-2,3,4,5-tetrahydro-1H-2-benzazepin-2-yl)propan-1-one] | 90.9
13 | O=C(CCl)Nc1nc(-c2cccs2)cs1 [5-D18, 2-chloro-N-[4-(thiophen-2-yl)-1,3-thiazol-2-yl]acetamide] | 0.312
14 | CC(Cl)C(=O)Nc1ccc(C2CC(=O)NC(=O)N2)cc1 (centres unmarked) [5-D19, 2-chloro-N-[4-(2,6-dioxo-1,3-diazinan-4-yl)phenyl]propanamide] | 92.5
15 | N#CCCN(Cc1ccco1)C(=O)CCl [5-D20, 2-chloro-N-(2-cyanoethyl)-N-[(furan-2-yl)methyl]acetamide] | 1.25
16 | Cc1ccc2nc(-c3ccc(F)cc3)c(CNC(=O)C(C)Cl)n2c1 (centres unmarked) [5-D21, 2-chloro-N-{[2-(4-fluorophenyl)-6-methylimidazo[1,2-a]pyridin-3-yl]methyl}propanamide] | 113
17 | Cc1ccc(NC(=O)C(C)Cl)cc1S(=O)(=O)N1CCOCC1 (centres unmarked) [5-D22, 2-chloro-N-[4-methyl-3-(morpholine-4-sulfonyl)phenyl]propanamide] | 77.8
18 | CN(C1CCCCC1)S(=O)(=O)c1ccc(NC(=O)CCl)cc1 [5-E03, 2-chloro-N-{4-[cyclohexyl(methyl)sulfamoyl]phenyl}acetamide] | -0.149
19 | Cc1noc(CC(NC(=O)CCl)c2ccccc2)n1 (centres unmarked) [5-E04, 2-chloro-N-[2-(3-methyl-1,2,4-oxadiazol-5-yl)-1-phenylethyl]acetamide] | 29.3
20 | COc1cccc(CN(C(=O)CCl)C23CC4CC(CC(C4)C2)C3)c1 [5-E05, N-(adamantan-1-yl)-2-chloro-N-[(3-methoxyphenyl)methyl]acetamide] | 0.151
21 | CC(C)N(Cc1ccc(N(C)C)cc1)C(=O)CCl [5-E06, 2-chloro-N-{[4-(dimethylamino)phenyl]methyl}-N-(propan-2-yl)acetamide] | 1.94
22 | Cc1ccc(S(=O)(=O)NC2CN(C(=O)CCl)C2)cc1 [5-E07, N-[1-(2-chloroacetyl)azetidin-3-yl]-4-methylbenzene-1-sulfonamide] | 0.324
23 | O=C(CCl)N1CCCCC1Cn1ccnn1 (centres unmarked) [5-E08, 2-chloro-1-{2-[(1H-1,2,3-triazol-1-yl)methyl]piperidin-1-yl}ethan-1-one] | 28
24 | O=C(CCl)NC1CC(=O)N(c2cccc(C(F)(F)F)c2)C1 (centres unmarked) [5-E09, 2-chloro-N-{5-oxo-1-[3-(trifluoromethyl)phenyl]pyrrolidin-3-yl}acetamide] | 0.777
25 | O=C(CCl)N1CCOCC1c1noc(-c2ccccc2)n1 (centres unmarked) [5-E10, 2-chloro-1-[3-(5-phenyl-1,2,4-oxadiazol-3-yl)morpholin-4-yl]ethan-1-one] | 1.07
26 | CC(NC(=O)CCl)c1cn(C)c2cc(Cl)ccc12 (centres unmarked) [5-E11, 2-chloro-N-[1-(6-chloro-1-methyl-1H-indol-3-yl)ethyl]acetamide] | 0.196
27 | COc1cc(CN(C(=O)CCl)C2CCCOC2)ccc1C (centres unmarked) [5-E12, 2-chloro-N-[(3-methoxy-4-methylphenyl)methyl]-N-(oxan-3-yl)acetamide] | 0.549

Row | SMILES | viability at 48 h, 25 µM [%]
28 | CN(C)S(=O)(=O)c1cc(NC(=O)CCl)ccc1Cl [5-E13, 2-chloro-N-[4-chloro-3-(dimethylsulfamoyl)phenyl]acetamide] | 0.0364
29 | Cc1cc(CN(C(=O)CCl)c2ccc(F)cc2)nn1C [5-E14, 2-chloro-N-[(1,5-dimethyl-1H-pyrazol-3-yl)methyl]-N-(4-fluorophenyl)acetamide] | 0.639
30 | O=C(CCl)NCC1(c2ccccc2)CC1 [5-E15, 2-chloro-N-[(1-phenylcyclopropyl)methyl]acetamide] | 3.61
31 | Cc1cc(C(C)N(Cc2c(C)noc2C)C(=O)CCl)c(C)o1 (centres unmarked) [5-E16, 2-chloro-N-[(3,5-dimethyl-1,2-oxazol-4-yl)methyl]-N-[1-(2,5-dimethylfuran-3-yl)ethyl]acetamide] | 1.18
32 | CC(C)(C)C1CCc2c(sc(NC(=O)CCl)c2C#N)C1 (centres unmarked) [5-E17, N-(6-tert-butyl-3-cyano-4,5,6,7-tetrahydro-1-benzothiophen-2-yl)-2-chloroacetamide] | 0.117
33 | O=C(CCl)N1CCN(C2CCCN(C3CCOCC3)C2=O)CC1 (centres unmarked) [5-E18, 3-[4-(2-chloroacetyl)piperazin-1-yl]-1-(oxan-4-yl)piperidin-2-one] | 9.07
34 | O=C(CCl)NC1CCN(Cc2ccccc2)CC1 [5-E19, N-(1-benzylpiperidin-4-yl)-2-chloroacetamide hydrochloride] | 1.13
35 | O=C(CCl)N1CCC(C2CCCN(C(=O)C(F)(F)F)C2)CC1 (centres unmarked) [5-E20, 1-[1'-(2-chloroacetyl)-[3,4'-bipiperidin]-1-yl]-2,2,2-trifluoroethan-1-one] | 1.17
36 | CC(Cl)C(=O)Nc1sccc1C#N (centres unmarked) [5-E21, 2-chloro-N-(3-cyanothiophen-2-yl)propanamide] | 59
37 | O=C(CCl)N1C[C@@H]2C[C@H]1CN2c1ccccc1 [5-E22, 2-chloro-1-[(1S,4S)-5-phenyl-2,5-diazabicyclo[2.2.1]heptan-2-yl]ethan-1-one] | 0.453
38 | CNC(=O)C(F)(F)C1(O)CCN(C(=O)CCl)CC1 [5-F03, 2-[1-(2-chloroacetyl)-4-hydroxypiperidin-4-yl]-2,2-difluoro-N-methylacetamide] | 1.94
39 | CC1CN(C(=O)C(C)Cl)CC(C)O1 (centres unmarked) [5-F04, 2-chloro-1-(2,6-dimethylmorpholin-4-yl)propan-1-one] | 96.1
40 | CC(C)n1cc(C2=CCCN(C(=O)CCl)CC2)nn1 [5-F05, 2-chloro-1-{4-[1-(propan-2-yl)-1H-1,2,3-triazol-4-yl]-2,3,6,7-tetrahydro-1H-azepin-1-yl}ethan-1-one] | 1.75
41 | CN(Cc1ccc(N(C)C)cc1)C(=O)CCl [5-F06, 2-chloro-N-{[4-(dimethylamino)phenyl]methyl}-N-methylacetamide hydrochloride] | 0.499
42 | CCN(Cc1cccs1)C(=O)CCl [5-F07, 2-chloro-N-ethyl-N-[(thiophen-2-yl)methyl]acetamide] | 1.01
43 | CC(Cl)C(=O)Nc1ccc(-c2c[nH]cn2)cc1 (centres unmarked) [5-F08, 2-chloro-N-[4-(1H-imidazol-4-yl)phenyl]propanamide] | 98.2
44 | CC(C1CC1)N(Cc1ccccc1)C(=O)CCl (centres unmarked) [5-F09, N-benzyl-2-chloro-N-(1-cyclopropylethyl)acetamide] | 0.956
45 | CC(Cl)C(=O)Nc1ccccc1 (centres unmarked) [5-F10, 2-chloro-N-phenylpropanamide] | 91.9
46 | CC(Cl)C(=O)N1CCCCCC1 (centres unmarked) [5-F11, 1-(azepan-1-yl)-2-chloropropan-1-one] | 105
47 | CC(C1CC1)N(C(=O)CCl)C1CC1 (centres unmarked) [5-F12, 2-chloro-N-cyclopropyl-N-(1-cyclopropylethyl)acetamide] | 1.06
48 | CC(NC(=O)CCl)c1nnc(-c2cccc(F)c2)s1 (centres unmarked) [5-F13, 2-chloro-N-{1-[5-(3-fluorophenyl)-1,3,4-thiadiazol-2-yl]ethyl}acetamide] | 0.963
49 | CC(CC#N)Sc1ccccc1NC(=O)CCl (centres unmarked) [5-F14, 2-chloro-N-{2-[(1-cyanopropan-2-yl)sulfanyl]phenyl}acetamide] | 1.02
50 | CC(Cl)C(=O)N1Cc2ccccc2N(C)C[C@@H]1C (stereo partly drawn) [5-F15, 2-chloro-1-[(3S)-1,3-dimethyl-2,3,4,5-tetrahydro-1H-1,4-benzodiazepin-4-yl]propan-1-one] | 108
51 | Cc1ccc(-c2csc(NC(=O)CCl)n2)cc1C [5-F16, 2-chloro-N-[4-(3,4-dimethylphenyl)-1,3-thiazol-2-yl]acetamide] | 0.595
52 | CC(Cl)C(=O)N1CCN(C(=O)c2cccc(OC(F)F)c2)CC1 (centres unmarked) [5-F17, 2-chloro-1-{4-[3-(difluoromethoxy)benzoyl]piperazin-1-yl}propan-1-one] | 106
53 | CN(CC(=O)Nc1cccc(Cl)c1)C(=O)CCl [5-F18, 2-chloro-N-{[(3-chlorophenyl)carbamoyl]methyl}-N-methylacetamide] | 0.687
